Measurements as given in US6710168B1, “Glycopeptide antibiotics, combinatorial libraries of glycopeptide antibiotics and methods of producing same” (The Trustees of the University of Princeton, priority 1999, dated 2004).
Converted amounts (≈) assume the structure as drawn.

How the values were obtained:
Assay type in all cases: cell-based
[1] = tested on: gentamicin, streptmycin, vancomycin resistant Enterococcus faecalis (ATCC 51299); test: microbe, parasite or virus in culture; conditions: for MIC: Enterococcus faecalis, ATCC51299, read-out: MIC VREF; for MIC VREF: Enterococcus faecalis ATCC51299, vancomycin resistance
Procedure, shortened: (§1)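 Broth microdilution in cation-adjusted Mueller-Hinton broth, 12-step two-fold series from 5 μg/mL to […], mixed 1:1 with 10^6 CFU/mL cell suspension and incubated 24 h at 37 °C. MTT (1 mg/mL solution) is then added for 30 min (S. aureus, MRSA) or 2 h (E. faecalis strains). MIC = lowest concentration inhibiting growth.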

[2] = tested on: Bacillus cereus (ATCC 11778); test: MIC susceptibility test, microdilution with MTT readout; conditions: for MIC: Bacillus cereus, ATCC11778, read-out: MIC BC; for MIC BC: Bacillus ceres ATCC11778
Procedure, shortened: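 Bacillus cereus ATCC® 11778 susceptibility was measured by broth microdilution in 96-well microplates using Cation Adjusted Mueller-Hinton broth. Samples were diluted two-fold from 5 μg/mL over 12 steps. Each well combined 100 μL of cell suspension (10^6 CFU/mL) with 100 μL of antibiotic solution and was incubated at 37° C. for 24 h. Then 50 μL of MTT (1 mg/mL) was added for 30 min, and MIC (μg/mL) was read as the lowest concentration inhibiting growth.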

[3] = tested on: Methicillin resistant Staphylococcus aureus (ATCC 33591); test: as above; conditions: Staphylococcus aureus ATCC3359, Methicillin resistance; for MIC: ATCC 3359 / ATCC 33591 / MRSA, read-out: MIC MRSA
Procedure, shortened: as §1

[4] = tested on: Enterococcus faecalis (ATCC 29212); test: as above; conditions: Enterococcus faecalis ATCC29212; for MIC: read-out: MIC EF
Procedure, shortened: as §1

[5] = tested on: Staphylococcus aureus (ATCC 29213); test: as above; conditions: Staphylococcus aureus ATCC29213; for MIC: read-out: MIC SA
Procedure, shortened: as §1

[6] = tested on: Enterococcus faecium CL5137, VanA; test: MIC susceptibility test; conditions: Enterococcus faecium CL5137, VanA; for MIC: read-out: MIC CL5137
[7] = tested on: Enterococcus faecalis CL5244, VanB; test: MIC susceptibility test; conditions: Enterococcus faecalis CL5244, VanB; for MIC: read-out: MIC CL5244
Procedure, shortened: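 MTT-based broth microdilution in cation-adjusted Mueller-Hinton broth; two-fold 12-step dilutions […], inoculum 10^6 CFU/mL, 37° C for 24 h.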

SMILES	MIC [1] [µg/mL]	MIC [2] [µg/mL]	MIC [3] [µg/mL]	MIC [4] [µg/mL]	MIC [5] [µg/mL]	MIC [6] [µg/mL]	MIC [7] [µg/mL]	MIC VREF [1] [µg/mL]	MIC BC [2] [µg/mL]	MIC MRSA [3]	MIC EF [4] [µg/mL]	MIC SA [5]	MIC CL5137 [6]	MIC CL5244 [7] [µg/mL]
CN[C@@H](CC(C)C)C(=O)N[C@H]1C(=O)N[C@@H](CC(N)=O)C(=O)N[C@H]2C(=O)NC3C(=O)N[C@H](C(=O)N[C@@H](C(=O)O)c4cc(O)cc(O)c4-c4cc3ccc4O)[C@H](O)c3ccc(c(Cl)c3)Oc3cc2cc(c3OC2OC(CN)C(O)C(O)C2OC2CC(C)(NCc3ccc(-c4ccc(Cl)cc4)cc3)C(O)C(C)O2)Oc2ccc(cc2Cl)[C@H]1O (some centres unmarked) [LXXV, N-4-(4-Chlorophenyl)benzylvancosamine-glucose-C6-amine Vancomycin]	0.63 (≈ 0.382 µM)	0.16 (≈ 0.097 µM)	≤ 0.03	≤ 0.03	≤ 0.03	2 (≈ 1.21 µM)	≤ 0.03							
CNC(CC(C)C)C(=O)NC1C(=O)NC(CC(N)=O)C(=O)NC2C(=O)NC3C(=O)NC(C(=O)NC(C(=O)O)c4cc(O)cc(O)c4-c4cc3ccc4O)C(O)c3ccc(c(Cl)c3)Oc3cc2cc(c3OC2OC(CSc3ccccc3)C(O)C(O)C2OC2CC(C)(N)C(O)C(C)O2)Oc2ccc(cc2Cl)C1O (centres unmarked) [LIV, Glucose-C6-thiophenyl Vancomycin]								2.5 (≈ 1.62 µM)	1.3 (≈ 0.843 µM)	0.63 µg/mL (≈ 0.409 µM)	1.3 (≈ 0.843 µM)	1.0 µg/mL (≈ 0.649 µM)	50< μg/mL	13 (≈ 8.43 µM)
CN[C@@H](CC(C)C)C(=O)N[C@H]1C(=O)N[C@@H](CC(N)=O)C(=O)N[C@H]2C(=O)NC3C(=O)N[C@H](C(=O)N[C@@H](C(=O)O)c4cc(O)cc(O)c4-c4cc3ccc4O)[C@H](O)c3ccc(c(Cl)c3)Oc3cc2cc(c3OC2OC(CSc3nc4cc(Cl)ccc4s3)C(O)C(O)C2OC2CC(C)(N)C(O)C(C)O2)Oc2ccc(cc2Cl)[C@H]1O (some centres unmarked) [LXVI, Glucose-C6-2-thio-5-chlorobenzothiazole Vancomycin]	0.32 (≈ 0.196 µM)	0.16 (≈ 0.098 µM)	1.3 (≈ 0.796 µM)	0.24 (≈ 0.147 µM)	0.63 (≈ 0.386 µM)	50 (≈ 30.6 µM)	0.4 (≈ 0.245 µM)							
CNC(CC(C)C)C(=O)NC1C(=O)NC(CC(N)=O)C(=O)NC2C(=O)NC3C(=O)NC(C(=O)NC(C(=O)O)c4cc(O)cc(O)c4-c4cc3ccc4O)C(O)c3ccc(c(Cl)c3)Oc3cc2cc(c3OC2OC(CNCc3ccc(-c4ccc(Cl)cc4)o3)C(O)C(O)C2OC2CC(C)(NCc3ccc(-c4ccc(Cl)cc4)cc3)C(O)C(C)O2)Oc2ccc(cc2Cl)C1O (centres unmarked) [L, Glucose-C6-N-5-(4-chlorophenyl)furan-1-methylene-vancosamine-N-4-(4-chlorophenyl)benzyl Vancomycin]								1.0 (≈ 0.544 µM)	3.8 (≈ 2.07 µM)	2.5 µg/mL (≈ 1.36 µM)	1.3 (≈ 0.707 µM)	5.0 µg/mL (≈ 2.72 µM)	6.3 µg/mL (≈ 3.42 µM)	0.8 (≈ 0.435 µM)
CN[C@@H](CC(C)C)C(=O)N[C@H]1C(=O)N[C@@H](CC(N)=O)C(=O)N[C@H]2C(=O)NC3C(=O)N[C@H](C(=O)N[C@@H](C(=O)O)c4cc(O)cc(O)c4-c4cc3ccc4O)[C@H](O)c3ccc(c(Cl)c3)Oc3cc2cc(c3OC2OC(COS(=O)(=O)c3c(C)cc(C)cc3C)C(O)C(O)C2OC2CC(C)(NCc3ccc(-c4ccc(Cl)cc4)cc3)C(O)C(C)O2)Oc2ccc(cc2Cl)[C@H]1O (some centres unmarked) [XLII, N-4-(4-Chlorophenyl)benzylvancosamine-glucose-C6-2-mesitylenesulfonated Vancomycin]	1.9 (≈ 1.04 µM)	1.9 (≈ 1.04 µM)	> 5	1 (≈ 0.546 µM)	> 5	6.3 (≈ 3.44 µM)	0.8 (≈ 0.437 µM)							
CCCCCCCCCCNC1(C)CC(OC2C(Oc3c4cc5cc3Oc3ccc(cc3Cl)C(O)C3NC(=O)C(NC(=O)C5NC(=O)C(CC(N)=O)NC(=O)C(NC(=O)C(CC(C)C)NC)C(O)c5ccc(c(Cl)c5)O4)c4ccc(O)c(c4)-c4c(O)cc(O)cc4C(C(=O)O)NC3=O)OC(CNC(=O)c3cnc4ccccc4n3)C(O)C2O)OC(C)C1O (centres unmarked) [LI, Glucose-C6-N-2-quinoxaloyl-vancosamine-N-decyl Vancomycin]								1.3 (≈ 0.745 µM)	2.5 (≈ 1.43 µM)	5.0< μg/mL	0.63 (≈ 0.361 µM)	5.0< μg/mL	6.3 µg/mL (≈ 3.61 µM)	0.2 (≈ 0.115 µM)
CN[C@@H](CC(C)C)C(=O)N[C@H]1C(=O)N[C@@H](CC(N)=O)C(=O)N[C@H]2C(=O)NC3C(=O)N[C@H](C(=O)N[C@@H](C(=O)O)c4cc(O)cc(O)c4-c4cc3ccc4O)[C@H](O)c3ccc(c(Cl)c3)Oc3cc2cc(c3OC2OC(CN=[N+]=[N-])C(O)C(O)C2OC2CC(C)(N)C(O)C(C)O2)Oc2ccc(cc2Cl)[C@H]1O (some centres unmarked) [XLVI, Glucose-C6-azide Vancomycin]	2.5 (≈ 1.7 µM)	1 (≈ 0.678 µM)	1.3 (≈ 0.882 µM)	1.3 (≈ 0.882 µM)	0.63 (≈ 0.427 µM)	> 50	25 (≈ 17 µM)							
CN[C@@H](CC(C)C)C(=O)N[C@H]1C(=O)N[C@@H](CC(N)=O)C(=O)N[C@H]2C(=O)NC3C(=O)N[C@H](C(=O)N[C@@H](C(=O)O)c4cc(O)cc(O)c4-c4cc3ccc4O)[C@H](O)c3ccc(c(Cl)c3)Oc3cc2cc(c3OC2OC(CN=[N+]=[N-])C(O)C(O)C2OC2CC(C)(NCc3ccc(-c4ccc(Cl)cc4)cc3)C(O)C(C)O2)Oc2ccc(cc2Cl)[C@H]1O (some centres unmarked) [LXXIV, N-4-(4-Chlorophenyl)benzylvancosamine-glucose-C6-azide Vancomycin]	0.16 (≈ 0.0955 µM)	0.32 (≈ 0.191 µM)	0.48 (≈ 0.287 µM)	0.16 (≈ 0.0955 µM)	1 (≈ 0.597 µM)	13 (≈ 7.76 µM)	0.3 (≈ 0.179 µM)							
CN[C@@H](CC(C)C)C(=O)N[C@H]1C(=O)N[C@@H](CC(N)=O)C(=O)N[C@H]2C(=O)NC3C(=O)N[C@H](C(=O)N[C@@H](C(=O)O)c4cc(O)cc(O)c4-c4cc3ccc4O)[C@H](O)c3ccc(c(Cl)c3)Oc3cc2cc(c3OC2OC(CNN)C(O)C(O)C2OC2CC(C)(N)C(O)C(C)O2)Oc2ccc(cc2Cl)[C@H]1O (some centres unmarked) [XLIV, Glucose-C6-hydrazine Vancomycin]	2.5 (≈ 1.71 µM)	1.3 (≈ 0.888 µM)	1.3 (≈ 0.888 µM)	1.3 (≈ 0.888 µM)	0.63 (≈ 0.431 µM)	> 50	50 (≈ 34.2 µM)							
CN[C@@H](CC(C)C)C(=O)N[C@H]1C(=O)N[C@@H](CC(N)=O)C(=O)N[C@H]2C(=O)NC3C(=O)N[C@H](C(=O)N[C@@H](C(=O)O)c4cc(O)cc(O)c4-c4cc3ccc4O)[C@H](O)c3ccc(c(Cl)c3)Oc3cc2cc(c3OC2OC(CSc3nnc(NN)n3N)C(O)C(O)C2OC2CC(C)(NCc3ccc(-c4ccc(Cl)cc4)cc3)C(O)C(C)O2)Oc2ccc(cc2Cl)[C@H]1O (some centres unmarked) [LXXXIV, N-4-(4-Chlorophenyl)benzylvancosamine-glucose-C6-5-thio-4-amino-3-hydrazino-1,2,4-triazole Vancomycin]	0.16 (≈ 0.09 µM)	0.08 (≈ 0.045 µM)	0.48 (≈ 0.27 µM)	0.12 (≈ 0.0675 µM)	0.63 (≈ 0.354 µM)	6.3 (≈ 3.54 µM)	0.2 (≈ 0.112 µM)							
CNC(CC(C)C)C(=O)NC1C(=O)NC(CC(N)=O)C(=O)NC2C(=O)NC3C(=O)NC(C(=O)NC(C(=O)O)c4cc(O)cc(O)c4-c4cc3ccc4O)C(O)c3ccc(c(Cl)c3)Oc3cc2cc(c3OC2OC(CI)C(O)C(O)C2OC2CC(C)(N)C(O)C(C)O2)Oc2ccc(cc2Cl)C1O (centres unmarked) [LXX, Glucose-C6-iodo Vancomycin]								1.9 (≈ 1.22 µM)	0.63 (≈ 0.404 µM)	1.3 µg/mL (≈ 0.834 µM)	0.63 (≈ 0.404 µM)	0.63 µg/mL (≈ 0.404 µM)	50< μg/mL	6.3 (≈ 4.04 µM)
